{
  "source": "patent EP1754488A1",
  "about": "“Methods and compositions for non-viral gene therapy for treatment of hyperproliferative diseases” (Introgen Therapeutics, Inc., priority 1999, dated 2000)",
  "origin": "cited, not measured here",
  "key": {"multiple myeloma": {"test_system": "multiple myeloma", "conditions": "oral administration"}},
  "note": "Structures can show the parent of a compound that is named as a salt. *1 amine or outer side, *2 acyl side, *3 side chain or, on linkers, in order; H or OH if unused. Where a SMILES comes first, the peptide text is derived from it. Bridges are numbered along the chain shown (N, C = ends). Roman numbers before positions name the chains, in order. [ ]: non-standard residue; d: D form. Actinocin(9to1) = Cc1c2oc3c(C)ccc(C(=O)[*:1])c3nc-2c(C(=O)[*:2])c(N)c1=O; NMeV = CN[C@H](C(=O)O)C(C)C; Sar = CNCC(=O)O",
  "data": [
    {"smiles": "Cc1c2oc3c(C)ccc(C(=O)N[C@@H]4C(=O)N[C@H](C(C)C)C(=O)N5CCC[C@H]5C(=O)N(C)CC(=O)N(C)[C@@H](C(C)C)C(=O)O[C@@H]4C)c3nc-2c(C(=O)N[C@@H]2C(=O)N[C@H](C(C)C)C(=O)N3CCC[C@H]3C(=O)N(C)CC(=O)N(C)[C@@H](C(C)C)C(=O)O[C@@H]2C)c(N)c1=O", "note": "[Actinomycin D] (I: T[dV]P[Sar][NMeV] / II: T[dV]P[Sar][NMeV]; ester I:1-I:C, II:1-II:C; linker I:N-II:N via Actinocin(9to1))", "values": [
      {"measurement": "excreted / detected intact in the urine", "setting": "in vivo", "result": 10, "unit": "%"},
      {"measurement": "excreted intact into the bile", "setting": "in vivo", "result": "Half of the dose"}
    ]},
    {"smiles": "COc1cccc2c1C(=O)c1c(O)c3c(c(O)c1C2=O)C[C@@](O)(C(C)=O)C[C@@H]3O[C@H]1C[C@H](N)[C@H](O)[C@H](C)O1", "note": "[Daunorubicin, 5,12-Naphthacenedione, (8S-cis)-8-acetyl-10-[(3-amino-2,3,6-trideoxy-a-L-lyxo-hexanopyranosyl)oxy]-7,8,9,10-tetrahydro-6,8,11-trihydroxy-10-methoxy-, hydrochloride]", "values": [
      {"measurement": "half-life of distribution", "setting": "in vivo", "result": 0.75, "unit": "h"}
    ]},
    {"smiles": "O=NN(CCCl)C(=O)NC1CCCCC1", "note": "[Lomustine, 1-(2-chloro-ethyl)-3-cyclohexyl-1 nitrosourea]", "values": [
      {"measurement": "radioactivity excreted in the form of degradation products within 24 hours", "setting": "oral radioactive lomustine, 30 mg/m^2 to 100 mg/m^2", "result": "about half of the radioactivity"}
    ]},
    {"smiles": "N[C@@H](Cc1ccc(N(CCCl)CCCl)cc1)C(=O)O", "note": "[Melphalan, 4-[bis(2-chloroethyl)amino]-L-phenylalanine]", "values": [
      {"measurement": "patients showing a favorable response", "setting": "multiple myeloma", "result": "about one third to one half of the patients"}
    ]},
    {"smiles": "CC[C@]1(O)C[C@@H]2CN(CCc3c([nH]c4ccccc34)[C@@](C(=O)OC)(c3cc4c(cc3OC)N(C)[C@H]3[C@@](O)(C(=O)OC)[C@H](OC(C)=O)[C@]5(CC)C=CCN6CC[C@]43[C@@H]65)C2)C1", "note": "[Vinblastine]", "values": [
      {"measurement": "excreted / detected intact in the urine", "setting": "in vivo", "result": "Approximately 15%"},
      {"measurement": "half-life of disappearance from plasma after distribution (first)", "setting": "intravenous injection", "result": "approximately 1 hours"},
      {"measurement": "half-life of disappearance from plasma after distribution (second)", "setting": "intravenous injection", "result": "~72000", "unit": "s"}
    ]}
  ]
}
